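48-hour exposure; five concentrations; linearly interpolated endpoints. The concentration for full growth arrest is given as TGI.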
Experiments:
Experiment in all cases: NCI tumour cell line growth inhibition, 48 h
[1] = system: CAKI-1 renal
[2] = system: HOP-62 NSCLC
[3] = system: KM12 colon
[4] = system: LOX IMVI melanoma
[5] = system: M14 melanoma
[6] = system: MDA-N
[7] = system: NCI-H226 lung
[8] = system: TK-10 renal
[9] = system: HT29 colon
[10] = system: UACC-62 melanoma
[11] = system: CCRF-CEM leukemia

Structure (SMILES) | TGI [1] [µM] | TGI [2] [µM] | TGI [3] [µM] | TGI [4] [µM] | TGI [5] [µM] | TGI [6] [µM] | TGI [7] [µM] | TGI [8] [µM] | TGI [9] [µM] | TGI [10] [µM] | TGI [11] [µM]
Brc1cccc(C2(CCCC3(c4cccc(Br)n4)OCCO3)OCCO2)n1 | > 100 | > 100 | > 100 | > 100 | > 100 | > 100 | > 100 | > 100 | – | – | –
ClCc1c(-c2ccccc2)nn(-c2ccccc2)c1CCl | 3.71 | – | 32.7 | – | 35.5 | 24.2 | 72.8 | 29.2 | 31.9 | 21.4 | –
CC1NOC(NS(=O)(=O)c2ccc(N=Nc3c(O)c(C(=O)O)cc4ccccc34)cc2)C1C (stereo not given) | > 100 | > 100 | > 100 | – | > 100 | – | > 100 | > 100 | > 100 | > 100 | > 100
Cc1nc2ccccc2c(=O)n1NC(=O)Cc1ccccc1 | – | > 100 | > 100 | > 100 | > 100 | > 100 | > 100 | > 100 | > 100 | > 100 | > 100
Cc1nnc(N)nc1/C=C\c1cccs1 | > 100 | 38.5 | 31.5 | > 100 | 36.9 | – | 49.4 | > 100 | 41.4 | 49.4 | 70.8
O=C(c1ccc(Cl)cc1)N(C(=S)N1CCN(c2ccccn2)CC1)c1ccccc1 | > 100 | > 100 | > 100 | > 100 | > 100 | – | > 100 | > 100 | > 100 | > 100 | > 100
CCCCNC(=S)/N=C/c1c(O)c2ccccc2oc1=O | > 100 | > 100 | > 100 | > 100 | > 100 | > 100 | > 100 | > 100 | > 100 | – | –
Cc1cc2nc3n(c2cc1C)C(c1c(F)cccc1F)SC3 (stereo not given) | 60.3 | 72 | > 10 | 30.3 | 40.8 | – | 23.8 | > 100 | 38.9 | > 10 | 64.3
O=C(NN=C1CCCCC1)Nc1ccccc1Cl | > 100 | – | > 100 | > 100 | > 100 | 39 | > 100 | > 100 | > 100 | > 100 | > 100
Cc1ccc(NC(=O)c2cccc([N+](=O)[O-])c2O)c(C)c1 | 79.8 | > 100 | > 100 | > 100 | > 100 | – | > 100 | – | > 100 | > 100 | > 100
O=C1C[C@H](c2ccccc2)C2(C(=O)c3ccccc3C2=O)[C@@H](c2ccccc2)C1 | > 100 | > 100 | – | – | 95.9 | 81 | 69.1 | – | > 100 | 26.7 | > 100
O=C1c2ccccc2C2(c3ccc(Cl)cc3)NCc3ccccc3CN12 (stereo not given) | > 100 | 30.5 | 44.2 | 29.7 | 34 | > 100 | – | > 100 | 28.5 | 33.5 | 86.2
c1ccc(C(=NNc2nc3ccccc3[nH]2)c2ccccn2)nc1 | 2.07 | 2.62 | > 80.3 | 27.8 | 1.84 | > 100 | 0.448 | – | 12.1 | – | 0.257
Cc1ccc(S(=O)(=O)n2cc(-c3cnc(N)c(Br)n3)c3ccccc32)cc1 | > 100 | > 100 | > 40.1 | > 100 | > 55.1 | 0.836 | > 100 | > 100 | 9.57 | > 57.2 | –
COc1ccc(OC)c(CNc2ccc(O)c(C(=O)NCCc3ccc(F)cc3)c2)c1 | 87.9 | 21.4 | 25.9 | 25.3 | 26.8 | 23 | – | 94.9 | 47.5 | 25.7 | > 100
Cc1cc(NC2=NCCO2)c2c(c1C)CCCC2 | – | 32 | 33.5 | – | 28.1 | – | 12.4 | > 100 | 49.7 | 41.1 | > 100
CC[C@@]1(O)C(=O)OCc2c1cc1n(c2=O)Cc2c-1nc1ccccc1c2/C=N\NC(=O)C(N)CS (stereo not given in full) | > 91.3 | – | > 100 | 13.4 | 10.5 | > 100 | 34.1 | > 100 | > 100 | 0.761 | –
CC(=O)c1ccc2c(c1)oc(=O)n2CCN(C)C | > 100 | > 100 | > 100 | > 100 | > 100 | – | > 100 | > 100 | > 100 | > 100 | > 100
O=c1c2cc(-c3ccccc3)cnc2sn1-c1ccc([N+](=O)[O-])cc1 | > 100 | 81.7 | > 100 | – | > 100 | > 100 | > 100 | – | > 100 | > 100 | > 100
O=C1Nc2ccccc2NC1C1OC(c2ccccc2)=CC1=O (stereo not given) | > 100 | – | > 100 | > 100 | > 100 | > 100 | > 100 | > 100 | > 100 | > 100 | > 100
CC(C)(C)OC(=O)NC(CCCCNC(=O)OCc1ccccc1)C(=O)NC(CCCCNC(=O)OCc1ccccc1)C(=O)ON1C(=O)CCC1=O (stereo not given) | – | > 100 | > 100 | – | > 100 | > 100 | > 100 | > 100 | > 100 | > 100 | > 100
CC(=O)c1ccc(NC(=O)/C(=N\NC(N)=O)C(C#N)CC(C)(C)C=O)cc1 (stereo not given) | > 100 | > 100 | > 100 | > 100 | > 100 | – | > 100 | > 100 | > 100 | > 100 | > 100

Reference: PubChem BioAssay (NCI)
